The compounds below were run against [35S]-TBPS binding to rat brain cortical membranes in the presence of 5 μM GABA (GABA receptor complex) (assay: Steroid inhibition of [35S]-TBPS binding (radioligand displacement)). Conditions: 3 nM [35S]-TBPS.
Experimental: TBPS binding assays using rat brain cortical membranes in the presence of 5 μM GABA has been described (Gee et al, J. Pharmacol. Exp. Ther. 1987, 241, 346-353; Hawkinson et al, Mol. Pharmacol. 1994, 46, 977-985; Lewin, A. H et al., Mol. Pharmacol. 1989, 35, 189-194).
Briefly, cortices are rapidly removed following decapitation of carbon dioxide-anesthetized Sprague-Dawley rats (200-250 g). The cortices are homogenized in 10 volumes of ice-cold 0.32 M sucrose using a glass/teflon homogenizer and centrifuged at 1500×g for 10 min at 4° C. The resultant supernatants are centrifuged at 10,000×g for 20 min at 4° C. to obtain the P2 pellets. The P2 pellets are resuspended in 200 mM NaCl/50 mM Na—K phosphate pH 7.4 buffer and centrifuged at 10,000×g for 10 min at 4° C. This washing procedure is repeated twice and the pellets are resuspended in 10 volumes of buffer. Aliquots (100 μL) of the membrane suspensions are incubated with 3 nM [^35S]-TBPS and 5 μL aliquots of test drug dissolved in dimethyl sulfoxide (DMSO) (final 0.5%) in the presence of 5 μM GABA. The incubation is brought to a final volume of 1.0 mL with buffer. […] Following a 90 min incubation at room temp, the assays are terminated by filtration through glass fiber filters (Schleicher and Schuell No. 32) using a cell harvester (Brandel) and rinsed three times with ice-cold buffer. Filter bound radioactivity is measured by liquid scintillation spectrometry. Non-linear curve fitting of the overall data for each drug averaged for each concentration is done using Prism (GraphPad). […] The concentration of test compound producing 50% inhibition (IC50) of specific binding and the maximal extent of inhibition (Imax) are determined for the individual experiments with the same model used for the overall data and then the means±SEM.s of the individual experiments are calculated.
Various compounds are or can be screened to determine their potential as modulators of [^35S]-TBPS binding in vitro. These assays are or can be performed in accordance with the above discussed procedures.

`COC[C@]12CC[C@@](C)(O)C[C@H]1CC[C@H]1[C@@H]3CC[C@H](C(=O)Cn4nc5cc(F)cc(F)c5n4)[C@@]3(C)CC[C@@H]12` [Compound 10] and `COC[C@]12CC[C@@](C)(O)C[C@H]1CC[C@H]1[C@@H]3CC[C@H](C(=O)Cn4nc5ccc(Cl)c(F)c5n4)[C@@]3(C)CC[C@@H]12` [Compound 24] cannot be ordered by IC50: under 10 nM for the first, under 10 nM for the second.

`COC[C@]12CC[C@@](C)(O)C[C@H]1CC[C@H]1[C@@H]3CC[C@H](C(=O)Cn4nnc5cc(Cl)cnc54)[C@@]3(C)CC[C@@H]12` [Compound 12] and `COC[C@]12CC[C@@](C)(O)C[C@H]1CC[C@H]1[C@@H]3CC[C@H](C(=O)Cn4nc5cc(Cl)cnc5n4)[C@@]3(C)CC[C@@H]12` [Compound 13] cannot be ordered by IC50: under 10 nM for the first, under 10 nM for the second.

First: COC[C@]12CC[C@@](C)(O)C[C@H]1CC[C@H]1[C@@H]3CC[C@H](C(=O)Cn4cc5ccc(F)cc5n4)[C@@]3(C)CC[C@@H]12 [Compound 14]
Second: COC[C@]12CC[C@@](C)(O)C[C@H]1CC[C@H]1[C@@H]3CC[C@H](C(=O)Cn4cc5ccncc5n4)[C@@]3(C)CC[C@@H]12 [Compound 46]
The IC50 of the first is lower: under 10 nM for the first, 10 to 50 nM for the second.

`COC[C@]12CC[C@@](C)(O)C[C@H]1CC[C@H]1[C@@H]3CC[C@H](C(=O)Cn4ncc5ccc(F)cc54)[C@@]3(C)CC[C@@H]12` [Compound 15] and `COC[C@]12CC[C@@](C)(O)C[C@H]1CC[C@H]1[C@@H]3CC[C@H](C(=O)Cn4nnc5ccccc54)[C@@]3(C)CC[C@@H]12` [Compound 18] cannot be ordered by IC50: under 10 nM for the first, under 10 nM for the second.

First: COC[C@]12CC[C@@](C)(O)C[C@H]1CC[C@H]1[C@@H]3CC[C@H](C(=O)Cn4cc(SC)cn4)[C@@]3(C)CC[C@@H]12 [Compound 21]
Second: COC[C@]12CC[C@@](C)(O)C[C@@H]1CC[C@H]1[C@@H]3CC[C@H](C(=O)Cn4cc(SC)cn4)[C@@]3(C)CC[C@@H]12 [Compound 34]
The IC50 of the first is lower: under 10 nM for the first, 10 to 50 nM for the second. The first is the more potent here.

`COC[C@]12CC[C@@](C)(O)C[C@H]1CC[C@H]1[C@@H]3CC[C@H](C(=O)Cn4nnc5ccc(OC)cc54)[C@@]3(C)CC[C@@H]12` [Compound 25] and `COC[C@]12CC[C@@](C)(O)C[C@H]1CC[C@H]1[C@@H]3CC[C@H](C(=O)Cn4nnc5cc(OC)ccc54)[C@@]3(C)CC[C@@H]12` [Compound 26] cannot be ordered by IC50: under 10 nM for the first, under 10 nM for the second.

`COC[C@]12CC[C@@](C)(O)C[C@H]1CC[C@H]1[C@@H]3CC[C@H](C(=O)Cn4nc5ccc(OC)cc5n4)[C@@]3(C)CC[C@@H]12` [Compound 27] and `COC[C@]12CC[C@@](C)(O)C[C@H]1CC[C@H]1[C@@H]3CC[C@H](C(=O)Cn4nc5cccc(OC)c5n4)[C@@]3(C)CC[C@@H]12` [Compound 30] cannot be ordered by IC50: under 10 nM for the first, under 10 nM for the second.

`COC[C@]12CC[C@@](C)(O)C[C@H]1CC[C@H]1[C@@H]3CC[C@H](C(=O)Cn4nnc5c(OC)cccc54)[C@@]3(C)CC[C@@H]12` [Compound 28] and `COC[C@]12CC[C@@](C)(O)C[C@H]1CC[C@H]1[C@@H]3CC[C@H](C(=O)Cn4nnc5cccc(OC)c54)[C@@]3(C)CC[C@@H]12` [Compound 29] cannot be ordered by IC50: under 10 nM for the first, under 10 nM for the second.

`COC[C@]12CC[C@@](C)(O)C[C@@H]1CC[C@H]1[C@@H]3CC[C@H](C(=O)Cn4cc([S+](C)[O-])cn4)[C@@]3(C)CC[C@@H]12` (stereo partly shown) [Compound 35] and `COC[C@]12CC[C@@](C)(O)C[C@@H]1CC[C@H]1[C@@H]3CC[C@H](C(=O)Cn4cc(C(=O)O)nn4)[C@@]3(C)CC[C@@H]12` [Compound 82] cannot be ordered by IC50: over 500 nM for the first, over 500 nM for the second.

`COC[C@]12CC[C@@](C)(O)C[C@@H]1CC[C@H]1[C@@H]3CC[C@H](C(=O)Cn4nnc5c(F)c(Cl)ccc54)[C@@]3(C)CC[C@@H]12` [Compound 51] and `CC(C)OC[C@]12CC[C@@](C)(O)C[C@H]1CC[C@H]1[C@@H]3CC[C@H](C(=O)Cn4nnc5c(F)c(F)ccc54)[C@@]3(C)CC[C@@H]12` [Compound 68] cannot be ordered by IC50: under 10 nM for the first, under 10 nM for the second.

`CC(C)OC[C@]12CC[C@@](C)(O)C[C@H]1CC[C@H]1[C@@H]3CC[C@H](C(=O)Cn4nnc5ccc(F)c(F)c54)[C@@]3(C)CC[C@@H]12` [Compound 69] and `CC(C)OC[C@]12CC[C@@](C)(O)C[C@H]1CC[C@H]1[C@@H]3CC[C@H](C(=O)Cn4nc5ccc(F)c(F)c5n4)[C@@]3(C)CC[C@@H]12` [Compound 70] cannot be ordered by IC50: under 10 nM for the first, under 10 nM for the second.

First: CC(C)OC[C@]12CC[C@@](C)(O)C[C@H]1CC[C@H]1[C@@H]3CC[C@H](C(=O)Cn4ncnn4)[C@@]3(C)CC[C@@H]12 [Compound 72]
Second: COC[C@]12CC[C@@](C)(O)C[C@@H]1CC[C@H]1[C@@H]3CC[C@H](C(=O)Cn4ncc(CO)n4)[C@@]3(C)CC[C@@H]12 [Compound 85]
The IC50 of the first is lower: under 10 nM for the first, over 500 nM for the second.

`COC[C@]12CC[C@@](C)(O)C[C@@H]1CC[C@H]1[C@@H]3CC[C@H](C(=O)Cn4ncc(C(=O)O)n4)[C@@]3(C)CC[C@@H]12` [Compound 81] was tested, and the IC50 was over 500 nM.
